From PubChem BioAssay AID250 (DTP/NCI, 2004)
“And” between values parts separate entries of the source, which are not always exact repeats. Equal entries are not always repeated. Inconclusive results and toxic doses are left out.

Tested on: BDF1 mice, L1210 leukemia sc, survival T/C
Assay: NCI In Vivo Anticancer Drug Screen. Data for tumor model L1210 Leukemia (subcutaneous) in B6D2F1 (BDF1) mice
Conditions: higher = longer survival
How it was run: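 Transplantable tumor-bearing mice; survival or tumor size recorded; result = T/C, treated vs vehicle control.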

[1] = endpoint: median survival time, dose: 39.0 mg/kg/injection, schedule: Q01DX Z (sc), vehicle: methylcellulose (MC)
[2] = endpoint: median survival time, dose: 65.0 mg/kg/injection, schedule: Q01DX Z (sc), vehicle: methylcellulose (MC)
[3] = endpoint: median survival time, dose: 108.0 mg/kg/injection, schedule: Q01DX Z (sc), vehicle: methylcellulose (MC)
[4] = endpoint: median survival time, dose: 180.0 mg/kg/injection, schedule: Q01DX Z (sc), vehicle: methylcellulose (MC)
[5] = endpoint: median survival time, dose: 300.0 mg/kg/injection, schedule: Q01DX Z (sc), vehicle: methylcellulose (MC)

For CNNCc1ccc(C(=O)NC(C)C)cc1, the T/C (endpoint: median survival time, dose: 65.0 mg/kg/injection, schedule: Q01DX009 (sc), vehicle: saline) was 116 % of control and 122 % of control, the T/C (endpoint: median survival time, dose: 65.0 mg/kg/injection, schedule: Q01DX014 (sc), vehicle: saline) was 119 % of control and 122 % of control and the T/C (endpoint: median survival time, dose: 65.0 mg/kg/injection, schedule: Q01DX015 (sc), vehicle: saline) was 122 % of control. For the same compound, the T/C (endpoint: median survival time, dose: 108.0 mg/kg/injection, schedule: Q01DX014 (sc), vehicle: saline) was 111 % of control, the T/C (endpoint: median survival time, dose: 108.0 mg/kg/injection, schedule: Q01DX015 (sc), vehicle: saline) was 122 % of control and 123 % of control and the T/C (endpoint: median survival time, dose: 180.0 mg/kg/injection, schedule: Q01DX015 (sc), vehicle: saline) was 150 % of control. The T/C (endpoint: median survival time, dose: 300.0 mg/kg/injection, schedule: Q01DX015 (sc), vehicle: saline) was 163 % of control and 166 % of control, the T/C (endpoint: median survival time, dose: 500.0 mg/kg/injection, schedule: Q01DX014 (sc), vehicle: saline) was 122 % of control and the T/C (endpoint: median survival time, dose: 500.0 mg/kg/injection, schedule: Q01DX015 (sc), vehicle: saline) was 116 % of control and 117 % of control.

With CS(=O)(=O)OCC(=O)NCCNC(=O)COS(C)(=O)=O the T/C [1] was 105 % of control, the T/C [2] was 105 % of control and the T/C [3] was 110 % of control. For the same compound, the T/C [4] was 110 % of control, the T/C [5] was 115 % of control and the T/C (endpoint: median survival time, dose: 500.0 mg/kg/injection, schedule: Q01DX Z (sc), vehicle: methylcellulose (MC)) was 100 % of control.

In the case of CS(=O)(=O)Nc1ccc(Nc2c3ccccc3nc3cc([N+](=O)[O-])ccc23)cc1, the T/C (endpoint: mean survival time, dose: 1.25 mg/kg/injection, schedule: Q01DX009 (ip), vehicle: Klucel (hydroxypropylcellulose) (HPC)) is reported as 108 % of control, the T/C (endpoint: mean survival time, dose: 1.25 mg/kg/injection, schedule: Q01DX009 (sc), vehicle: Klucel (hydroxypropylcellulose) (HPC)) is reported as 121 % of control and the T/C (endpoint: mean survival time, dose: 2.5 mg/kg/injection, schedule: Q01DX009 (ip), vehicle: Klucel (hydroxypropylcellulose) (HPC)) is reported as 107 % of control. The T/C (endpoint: mean survival time, dose: 2.5 mg/kg/injection, schedule: Q01DX009 (sc), vehicle: Klucel (hydroxypropylcellulose) (HPC)) was 108 % of control, the T/C (endpoint: mean survival time, dose: 5.0 mg/kg/injection, schedule: Q01DX009 (ip), vehicle: Klucel (hydroxypropylcellulose) (HPC)) was 106 % of control and the T/C (endpoint: mean survival time, dose: 5.0 mg/kg/injection, schedule: Q01DX009 (sc), vehicle: Klucel (hydroxypropylcellulose) (HPC)) was 112 % of control.

O=c1[nH]c(=O)n(C2CC(O)C(CO)O2)cc1Br (stereo unspecified) was tested, and the T/C (endpoint: median survival time, dose: 65.0 mg/kg/injection, schedule: Q01DX Z (sc), vehicle: saline) was 111 % of control, the T/C (endpoint: median survival time, dose: 108.0 mg/kg/injection, schedule: Q01DX Z (sc), vehicle: saline) was 111 % of control and the T/C (endpoint: median survival time, dose: 180.0 mg/kg/injection, schedule: Q01DX Z (sc), vehicle: saline) was 111 % of control. For the same compound, the T/C (endpoint: median survival time, dose: 300.0 mg/kg/injection, schedule: Q01DX Z (sc), vehicle: saline) was 111 % of control, the T/C (endpoint: median survival time, dose: 500.0 mg/kg/injection, schedule: Q01DX Z (sc), vehicle: saline) was 122 % of control and the T/C (endpoint: median survival time, dose: 833.0 mg/kg/injection, schedule: Q01DX Z (sc), vehicle: saline) was 122 % of control.

With COc1cc2c3c(c4ccc(OC)c(OC)c4c2cc1OC)CN1CCC[C@@H]1C3 the T/C (endpoint: median survival time, dose: 3.0 mg/kg/injection, schedule: Q01DX Z (sc), vehicle: carboxymethylcellulose (CMC)) was 100 % of control, the T/C (endpoint: median survival time, dose: 5.0 mg/kg/injection, schedule: Q01DX Z (sc), vehicle: carboxymethylcellulose (CMC)) was 100 % of control and the T/C (endpoint: median survival time, dose: 8.4 mg/kg/injection, schedule: Q01DX Z (sc), vehicle: carboxymethylcellulose (CMC)) was 100 % of control. For the same compound, the T/C (endpoint: median survival time, dose: 14.0 mg/kg/injection, schedule: Q01DX Z (sc), vehicle: carboxymethylcellulose (CMC)) was 95 % of control, the T/C (endpoint: median survival time, dose: 23.0 mg/kg/injection, schedule: Q01DX Z (sc), vehicle: carboxymethylcellulose (CMC)) was 90 % of control and 105 % of control and the T/C (endpoint: median survival time, dose: 39.0 mg/kg/injection, schedule: Q01DX Z (sc), vehicle: carboxymethylcellulose (CMC)) was 100 % of control. For the same compound, the T/C (endpoint: median survival time, dose: 65.0 mg/kg/injection, schedule: Q01DX Z (sc), vehicle: carboxymethylcellulose (CMC)) was 110 % of control, the T/C (endpoint: median survival time, dose: 108.0 mg/kg/injection, schedule: Q01DX Z (sc), vehicle: carboxymethylcellulose (CMC)) was 105 % of control and the T/C (endpoint: median survival time, dose: 180.0 mg/kg/injection, schedule: Q01DX Z (sc), vehicle: carboxymethylcellulose (CMC)) was 115 % of control.

In the case of C[C@]12CCC(=O)C=C1CC[C@@H]1[C@@H]2C(=O)C[C@@]2(C)[C@H]1CC[C@]2(O)C(=O)CO, the T/C [1] is reported as 100 % of control, the T/C [2] is reported as 104 % of control and the T/C [3] is reported as 104 % of control. The T/C [4] was 100 % of control and the T/C [5] was 100 % of control.
